Patent US20220047711A1, “PHOTOCROSSLINKING PEPTIDES FOR SITE SPECIFIC CONJUGATION TO FC-CONTAINING PROTEINS” (Genentech, Inc., priority 2018, published 2022)
pKd: −log10 of the molar value. Where “and” joins values, the source holds several entries; their conditions need not be identical. Identical values can stand only once.

Key:
[1] = molecular target: T1, Trastuzumab (TMab) (Homo sapiens, UniProt P01857, D239E/L241M); test: SPR binding of peptides to immobilized Trastuzumab; conditions: for pKd: TMab, FIG. 3C; for reduced binding affinity (Kd fold decreased) compared to the Fc-III peptide: relative to Fc-III
T1 construct: Genentech (HERCEPTIN)
Protocol: Example 2: SPR binding experiments. Kinetics of peptide binding to Trastuzumab were measured by surface plasmon resonance (SPR) on a Biacore 3000 instrument (GE Healthcare) using a previously established method. (Gong, Y.; et al., Development of the Double Cyclic Peptide Ligand for Antibody Purification and Protein Detection. Bioconjugate chemistry 2016). An amine coupling kit (GE Healthcare) was used to immobilize Trastuzumab to the surface of a CM5 Sensor Chip (GE Healthcare). All injections were double-referenced with real-time reference channel subtraction and buffer blank injections. Data were analyzed using the BiaEvaluation software (version 4.1, GE Healthcare).

[2] = molecular target: T1, Trastuzumab (TMab); test: Photoconjugation (UV 365 nm) of peptide to Trastuzumab, DAR by LC-MS
Protocol: (§1) Example 2: Antibody conjugation. Conjugation reactions for photocrosslinking peptides were performed open and uncovered in V-bottom, clear, polystyrene 96-well plates (ThermoFisher, product #2605) with a final reaction volume of 50 μL. Unused wells were filled with 150 μL of deionized water. Optimized reactions were performed in 20 mM histidine acetate buffer, pH=5.5, with a final concentration of 48 μM antibody, 480 μM photo-crosslinking peptide, 480 μM 5-hydroxyindole ([…], Sigma-Aldrich), with 11% (v/v) DMSO. […] The DAR was assessed by LC-MS analysis of Fc/2 or heavy chain fragments generated by IdeS or DTT treatments of Trastuzumab, respectively.

[3] = tested on: Rituximab (human IgG1); test: Photoconjugation of peptide to Rituximab, DAR
[4] = molecular target: human IgG4 antibody (A) (Homo sapiens, UniProt P01861); test: Photoconjugation of peptide to human IgG4 antibody A, DAR
Protocol: as §1

[5] = molecular target: human IgG4 "YTE" mutant (B) (Homo sapiens, UniProt P01861, M132Y/S134T/T136E); test: Photoconjugation of peptide to human IgG4 YTE mutant antibody B, DAR; conditions: Human IgG4 YTE mutant (no Met-252)
Protocol: as §1

[6] = molecular target: rabbit IgG (C) (Oryctolagus cuniculus, UniProt P01870); test: Photoconjugation of peptide to rabbit IgG antibody C, DAR
Protocol: as §1

[7] = molecular target: mouse IgG1 antibody (D) (Mus musculus, UniProt P01868); test: Photoconjugation of peptide to mouse IgG1 antibody D, DAR; conditions: Mouse IgG1 (no Met-252)
Protocol: as §1

[8] = molecular target: T1, Trastuzumab (TMab); test: Photoconjugation (UV 365 nm) of peptide to Trastuzumab, DAR by LC-MS; conditions: PBS, micro-centrifuge tubes on ice, hand-held 365 nm lamp, one hour
[9] = molecular target: human IgG; conditions: previously reported, Gong et al. 2016; cited from earlier work
[10] = 96-well plate directly under 365 nm lamp, room temperature, 4.5 hours

Compound: CC(=O)N[C@@H](CC(=O)O)C(=O)N[C@H]1CSSC[C@@H](C(=O)N[C@H](C(N)=O)[C@@H](C)O)NC(=O)[C@H](Cc2c[nH]c3ccccc23)NC(=O)[C@H](Cc2ccc(C(=O)c3ccccc3)cc2)NC(=O)[C@H](CC(C)C)NC(=O)[C@H](CCC(=O)O)NC(=O)CNC(=O)[C@H](CC(C)C)NC(=O)[C@H](Cc2c[nH]cn2)NC(=O)[C@H](Cc2c[nH]c3ccccc23)NC(=O)[C@H](C)NC1=O [BPA7, Ac-DCAWHLGELBWCT-NH2]
- pKd [1]: ~4.15 and 4.15
- bound to TMab less tightly than BPA9 ([1]; relative to BPA9): ~150 fold
- reduced binding affinity (Kd fold decreased) compared to the Fc-III peptide [1]: greater than 4000 fold
- DAR [2, 10]: ~1.7
- DAR (photoconjugation efficiency) ([2]; FIG. 3C, peptide series comparison): 1.9
- DAR ([2]; Row B: 267 μM BPA7, PBS, on ice (~4° C.), 4 hours): 1.5
- DAR ([2]; Row C: 267 μM BPA7, histidine-acetate pH 5.5, on ice, 4 hours): 1.8
- DAR ([2]; Row D: 267 μM BPA7, PBS, 267 μM 5-hydroxyindole, on ice, 4 hours): 1.4
- DAR ([2]; Row E: 480 μM BPA7 (10-fold over antibody), histidine-acetate pH 5.5, 5-hydroxyindole, 6 hours, on ice): 1.9
- DAR reached upon photoconjugation to BPA7 ([2]; Trastuzumab, Human IgG1): 2.0
- DAR ([2]; irradiation chamber, Row A: 267 μM BPA7, PBS, room temperature, 4 hours): 1.8
- DAR reached upon photoconjugation to BPA7 [3]: 2.0
- DAR reached upon photoconjugation to BPA7 [4]: 2.0
- DAR reached upon photoconjugation to BPA7 [5]: 0.0
- DAR reached upon photoconjugation to BPA7 [6]: 1.2
- DAR reached upon photoconjugation to BPA7 [7]: 0
- drug-to-antibody ratio (DAR) [8]: ~0.04

Compound: CC(=O)N[C@@H](CC(=O)O)C(=O)N[C@H]1CSSC[C@@H](C(=O)N[C@H](C(N)=O)[C@@H](C)O)NC(=O)[C@H](Cc2c[nH]c3ccccc23)NC(=O)[C@H](C(C)C)NC(=O)[C@H](CC(C)C)NC(=O)[C@H](CCC(=O)O)NC(=O)CNC(=O)[C@H](CC(C)C)NC(=O)[C@H](Cc2c[nH]cn2)NC(=O)[C@H](Cc2c[nH]c3ccccc23)NC(=O)[C@H](C)NC1=O [Fc-III]
- pKd [9]: 7.15

Compound: Ac-DCAWBLGELVWCT-NH2 (DCAWXLGELVWCT; Ac, NH2; BPA non-natural residue; /note=“N-term Ac”; MOD_RES (5)..(5) p-benzoyl-L-phenylalanine; /note=“C-term NH2”) [BPA3, B = BPA]
- DAR [2, 10]: 0.2

Compound: CC(=O)N[C@@H](CC(=O)O)C(=O)N[C@H]1CSSC[C@@H](C(=O)N[C@H](C(N)=O)[C@@H](C)O)NC(=O)[C@H](Cc2c[nH]c3ccccc23)NC(=O)[C@H](C(C)C)NC(=O)[C@H](CC(C)C)NC(=O)[C@H](CCC(=O)O)NC(=O)CNC(=O)[C@H](Cc2ccc(C(=O)c3ccccc3)cc2)NC(=O)[C@H](Cc2c[nH]cn2)NC(=O)[C@H](Cc2c[nH]c3ccccc23)NC(=O)[C@H](C)NC1=O [BPA4, Ac-DCAWHBGELVWCT-NH2]
- pKd [1]: ~4.52
- reduced binding affinity (Kd fold decreased) compared to the Fc-III peptide [1]: greater than 1700 fold
- DAR [2, 10]: 1.2
